{"source": "patent US9969694B2", "about": "“N-(arylalkyl)-N′-pyrazolyl-urea, thiourea, guanidine and cyanoguanidine compounds as TrkA kinase inhibitors” (Array BioPharma Inc., priority 2012, dated 2018)", "assay_in_all_cases": "Off-Target Kinase Profiling", "type_in_all_cases": "biochemical", "details_in_all_cases": "10 μM; ATP near Km", "key": {"[1]": {"target": "T1, ALK4 (Homo sapiens, UniProt P36896)", "T1 construct": "purchased Millipore (KinaseProfiler service)", "how_it_was_run": "(§1)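 Run as part of a full commercial kinase panel: compound fixed at 10 μM, duplicate wells, ATP concentration near the individual enzyme Km. Output is POC, averaged across both determinations.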"}, "[2]": {"target": "T2, AMPK(A1/B1/G1) (Homo sapiens, UniProt Q13131)", "T2 construct": "purchased Millipore (KinaseProfiler service)", "how_it_was_run": "as §1"}, "[3]": {"target": "T3, Axl (Homo sapiens, UniProt P30530)", "T3 construct": "purchased Millipore (KinaseProfiler service)", "how_it_was_run": "as §1"}, "[4]": {"target": "T4, BTK (Homo sapiens, UniProt Q06187)", "T4 construct": "purchased Millipore (KinaseProfiler service)", "how_it_was_run": "as §1"}, "[5]": {"target": "T5, CAMK2g (Homo sapiens, UniProt Q13555)", "T5 construct": "purchased Millipore (KinaseProfiler service)", "how_it_was_run": "as §1"}, "[6]": {"target": "T6, CDK3/cyclinE (Homo sapiens, UniProt Q00526)", "T6 construct": "purchased Millipore, Inc. (KinaseProfiler service)", "how_it_was_run": "as §1"}, "[7]": {"target": "T7, CK1delta (Homo sapiens, UniProt P48730)", "T7 construct": "purchased Millipore, Inc. (KinaseProfiler service)", "how_it_was_run": "as §1"}, "[8]": {"target": "T8, CK2 (Homo sapiens, UniProt P68400)", "T8 construct": "purchased Millipore, Inc. (KinaseProfiler service)", "T8 sequence (P68400 whole entry)": "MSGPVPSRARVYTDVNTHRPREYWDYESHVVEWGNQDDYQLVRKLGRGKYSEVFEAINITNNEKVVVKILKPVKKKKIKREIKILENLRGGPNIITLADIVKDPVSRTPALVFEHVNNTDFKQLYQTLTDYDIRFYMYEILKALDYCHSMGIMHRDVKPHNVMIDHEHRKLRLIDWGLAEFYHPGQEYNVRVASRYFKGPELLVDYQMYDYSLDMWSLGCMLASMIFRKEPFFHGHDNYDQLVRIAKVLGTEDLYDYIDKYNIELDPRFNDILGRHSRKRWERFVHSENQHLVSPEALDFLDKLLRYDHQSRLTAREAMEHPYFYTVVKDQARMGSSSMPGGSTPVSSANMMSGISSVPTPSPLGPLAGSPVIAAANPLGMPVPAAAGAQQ", "T8 sequence (P67870 whole entry partner)": "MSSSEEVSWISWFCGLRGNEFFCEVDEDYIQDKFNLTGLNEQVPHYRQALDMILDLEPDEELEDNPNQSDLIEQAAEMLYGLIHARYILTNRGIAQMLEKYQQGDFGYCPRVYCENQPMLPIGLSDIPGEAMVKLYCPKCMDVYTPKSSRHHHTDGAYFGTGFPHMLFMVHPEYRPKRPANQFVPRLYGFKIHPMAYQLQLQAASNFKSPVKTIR", "how_it_was_run": "as §1"}, "[9]": {"target": "T9, CSK (Homo sapiens, UniProt P41240)", "T9 construct": "purchased Millipore, Inc. (KinaseProfiler service)", "how_it_was_run": "as §1"}, "[10]": {"target": "T10, EphB3 (Homo sapiens, UniProt P54753)", "T10 construct": "purchased Millipore, Inc. (KinaseProfiler service)", "how_it_was_run": "as §1"}, "[11]": {"target": "T11, FAK2 (Homo sapiens, UniProt Q14289)", "T11 construct": "purchased Millipore, Inc. (KinaseProfiler service)", "how_it_was_run": "as §1"}, "[12]": {"target": "T12, FGFR1 (Homo sapiens, UniProt P11362)", "T12 construct": "purchased Millipore, Inc. (KinaseProfiler service)", "how_it_was_run": "as §1"}, "[13]": {"target": "T13, Flt4 (Homo sapiens, UniProt P35916)", "T13 construct": "purchased Millipore, Inc. (KinaseProfiler service)", "how_it_was_run": "as §1"}, "[14]": {"target": "T14, Fms (Homo sapiens, UniProt P07333)", "T14 construct": "purchased Millipore, Inc. (KinaseProfiler service)", "T14 sequence (P07333 20-972)": "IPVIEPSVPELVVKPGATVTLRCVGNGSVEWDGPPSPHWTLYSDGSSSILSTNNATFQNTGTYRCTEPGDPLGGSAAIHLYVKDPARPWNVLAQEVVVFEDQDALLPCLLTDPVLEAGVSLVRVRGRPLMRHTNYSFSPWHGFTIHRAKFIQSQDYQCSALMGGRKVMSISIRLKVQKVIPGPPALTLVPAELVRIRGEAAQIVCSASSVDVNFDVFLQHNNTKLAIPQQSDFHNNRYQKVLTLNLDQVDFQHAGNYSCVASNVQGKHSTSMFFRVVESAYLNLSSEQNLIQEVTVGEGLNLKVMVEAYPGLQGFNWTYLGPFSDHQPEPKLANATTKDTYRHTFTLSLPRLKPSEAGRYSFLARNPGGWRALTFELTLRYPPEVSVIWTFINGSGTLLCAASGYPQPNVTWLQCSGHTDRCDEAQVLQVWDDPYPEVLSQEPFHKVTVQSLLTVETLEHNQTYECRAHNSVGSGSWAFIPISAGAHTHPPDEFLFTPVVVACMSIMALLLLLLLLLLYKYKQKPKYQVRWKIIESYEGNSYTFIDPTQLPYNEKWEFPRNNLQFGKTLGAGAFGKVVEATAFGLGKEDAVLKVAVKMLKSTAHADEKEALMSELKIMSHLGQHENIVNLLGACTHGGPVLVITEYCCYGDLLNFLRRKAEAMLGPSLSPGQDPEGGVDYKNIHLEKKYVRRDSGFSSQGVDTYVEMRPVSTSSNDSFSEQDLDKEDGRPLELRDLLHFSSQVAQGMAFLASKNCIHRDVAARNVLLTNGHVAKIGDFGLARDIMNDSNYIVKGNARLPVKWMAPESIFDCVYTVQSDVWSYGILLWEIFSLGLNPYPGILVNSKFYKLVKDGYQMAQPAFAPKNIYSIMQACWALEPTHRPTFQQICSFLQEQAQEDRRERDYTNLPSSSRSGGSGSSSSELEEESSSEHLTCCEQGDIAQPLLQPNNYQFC", "how_it_was_run": "as §1"}, "[15]": {"target": "T15, GRK5 (Homo sapiens, UniProt P34947)", "T15 construct": "purchased Millipore, Inc. (KinaseProfiler service)", "how_it_was_run": "as §1"}, "[16]": {"target": "T16, Haspin (Homo sapiens, UniProt Q8TF76)", "T16 construct": "purchased Millipore, Inc. (KinaseProfiler service)", "how_it_was_run": "as §1"}, "[17]": {"target": "T17, IRR (Homo sapiens, UniProt P14616)", "T17 construct": "purchased Millipore, Inc. (KinaseProfiler service)", "how_it_was_run": "as §1"}, "[18]": {"target": "T18, LIMK1 (Homo sapiens, UniProt P53667)", "T18 construct": "purchased Millipore, Inc. (KinaseProfiler service)", "how_it_was_run": "as §1"}, "[19]": {"target": "T19, LKB1 (Homo sapiens, UniProt Q15831)", "T19 construct": "purchased Millipore, Inc. (KinaseProfiler service)", "how_it_was_run": "as §1"}, "[20]": {"target": "T20, Lck (Homo sapiens, UniProt P06239)", "T20 construct": "purchased Millipore, Inc. (KinaseProfiler service)", "how_it_was_run": "as §1"}, "[21]": {"target": "T21, MAP4K2 (Homo sapiens, UniProt Q12851)", "T21 construct": "purchased Millipore, Inc. (KinaseProfiler service)", "T21 sequence (Q12851 whole entry)": "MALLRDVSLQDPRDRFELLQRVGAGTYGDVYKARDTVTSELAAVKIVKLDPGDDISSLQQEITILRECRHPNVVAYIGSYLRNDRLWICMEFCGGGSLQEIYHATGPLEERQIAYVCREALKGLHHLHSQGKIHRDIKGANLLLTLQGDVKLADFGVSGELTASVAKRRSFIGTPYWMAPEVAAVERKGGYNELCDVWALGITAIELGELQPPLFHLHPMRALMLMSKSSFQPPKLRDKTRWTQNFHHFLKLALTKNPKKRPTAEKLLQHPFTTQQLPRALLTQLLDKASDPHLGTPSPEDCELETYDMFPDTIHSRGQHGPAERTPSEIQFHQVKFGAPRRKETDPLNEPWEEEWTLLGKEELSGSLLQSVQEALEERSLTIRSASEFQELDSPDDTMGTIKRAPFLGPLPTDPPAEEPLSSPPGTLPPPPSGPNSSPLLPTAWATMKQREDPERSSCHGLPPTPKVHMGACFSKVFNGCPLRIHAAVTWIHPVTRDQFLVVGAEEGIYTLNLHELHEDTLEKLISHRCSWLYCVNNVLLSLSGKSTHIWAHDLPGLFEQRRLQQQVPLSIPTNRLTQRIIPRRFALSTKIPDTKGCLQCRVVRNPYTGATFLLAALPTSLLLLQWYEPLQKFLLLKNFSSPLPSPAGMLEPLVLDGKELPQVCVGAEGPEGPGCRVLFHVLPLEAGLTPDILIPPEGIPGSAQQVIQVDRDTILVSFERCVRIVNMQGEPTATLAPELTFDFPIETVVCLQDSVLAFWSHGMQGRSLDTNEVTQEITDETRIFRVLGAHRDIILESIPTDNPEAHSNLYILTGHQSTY", "how_it_was_run": "as §1"}, "[22]": {"target": "T22, MAPKAP-K2 (Homo sapiens, UniProt P49137)", "T22 construct": "purchased Millipore, Inc. (KinaseProfiler service)", "how_it_was_run": "as §1"}, "[23]": {"target": "T23, MKNK2 (Homo sapiens, UniProt Q9HBH9)", "T23 construct": "purchased Millipore, Inc. (KinaseProfiler service)", "how_it_was_run": "as §1"}, "[24]": {"target": "T24, MYLK (Homo sapiens, UniProt Q15746)", "T24 construct": "purchased Millipore, Inc. (KinaseProfiler service)", "how_it_was_run": "as §1"}, "[25]": {"target": "T25, NEK3 (Homo sapiens, UniProt P51956)", "T25 construct": "purchased Millipore, Inc. (KinaseProfiler service)", "how_it_was_run": "as §1"}, "[26]": {"target": "T26, NLK (Homo sapiens, UniProt Q9UBE8)", "T26 construct": "purchased Millipore, Inc. (KinaseProfiler service)", "how_it_was_run": "as §1"}, "[27]": {"target": "T27, PAK2 (Homo sapiens, UniProt Q13177)", "T27 construct": "purchased Millipore, Inc. (KinaseProfiler service)", "how_it_was_run": "as §1"}, "[28]": {"target": "T28, PDK1 (Homo sapiens, UniProt O15530)", "T28 construct": "purchased Millipore, Inc. (KinaseProfiler service)", "how_it_was_run": "as §1"}, "[29]": {"target": "T29, PKCbetaI (Homo sapiens, UniProt P05771)", "T29 construct": "purchased Millipore, Inc. (KinaseProfiler service)", "how_it_was_run": "as §1"}, "[30]": {"target": "T30, PKCeta (Homo sapiens, UniProt P24723)", "T30 construct": "purchased Millipore, Inc. (KinaseProfiler service)", "T30 sequence (P24723 whole entry)": "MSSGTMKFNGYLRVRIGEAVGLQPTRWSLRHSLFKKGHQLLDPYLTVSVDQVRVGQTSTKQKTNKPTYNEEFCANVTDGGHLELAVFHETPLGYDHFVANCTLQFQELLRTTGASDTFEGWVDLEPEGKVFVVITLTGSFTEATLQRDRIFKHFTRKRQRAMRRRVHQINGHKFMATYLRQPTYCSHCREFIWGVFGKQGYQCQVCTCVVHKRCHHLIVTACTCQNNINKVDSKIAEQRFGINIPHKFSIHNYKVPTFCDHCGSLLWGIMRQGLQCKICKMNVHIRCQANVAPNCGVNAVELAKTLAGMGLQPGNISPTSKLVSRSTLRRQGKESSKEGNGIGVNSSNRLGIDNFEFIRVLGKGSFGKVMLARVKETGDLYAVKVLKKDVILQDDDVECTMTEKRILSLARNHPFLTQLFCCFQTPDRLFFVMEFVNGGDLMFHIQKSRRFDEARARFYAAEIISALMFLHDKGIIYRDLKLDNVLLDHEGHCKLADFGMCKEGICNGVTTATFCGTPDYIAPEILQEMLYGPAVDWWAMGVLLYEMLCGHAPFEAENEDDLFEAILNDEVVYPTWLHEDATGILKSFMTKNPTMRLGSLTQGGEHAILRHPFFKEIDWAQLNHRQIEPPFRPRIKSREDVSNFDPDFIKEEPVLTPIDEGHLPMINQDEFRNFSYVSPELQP", "how_it_was_run": "as §1"}, "[31]": {"target": "T31, PKCgamma (Homo sapiens, UniProt P05129)", "T31 construct": "purchased Millipore, Inc. (KinaseProfiler service)", "how_it_was_run": "as §1"}, "[32]": {"target": "T32, PKCiota (Homo sapiens, UniProt P41743)", "T32 construct": "purchased Millipore, Inc. (KinaseProfiler service)", "T32 sequence (P41743 whole entry)": "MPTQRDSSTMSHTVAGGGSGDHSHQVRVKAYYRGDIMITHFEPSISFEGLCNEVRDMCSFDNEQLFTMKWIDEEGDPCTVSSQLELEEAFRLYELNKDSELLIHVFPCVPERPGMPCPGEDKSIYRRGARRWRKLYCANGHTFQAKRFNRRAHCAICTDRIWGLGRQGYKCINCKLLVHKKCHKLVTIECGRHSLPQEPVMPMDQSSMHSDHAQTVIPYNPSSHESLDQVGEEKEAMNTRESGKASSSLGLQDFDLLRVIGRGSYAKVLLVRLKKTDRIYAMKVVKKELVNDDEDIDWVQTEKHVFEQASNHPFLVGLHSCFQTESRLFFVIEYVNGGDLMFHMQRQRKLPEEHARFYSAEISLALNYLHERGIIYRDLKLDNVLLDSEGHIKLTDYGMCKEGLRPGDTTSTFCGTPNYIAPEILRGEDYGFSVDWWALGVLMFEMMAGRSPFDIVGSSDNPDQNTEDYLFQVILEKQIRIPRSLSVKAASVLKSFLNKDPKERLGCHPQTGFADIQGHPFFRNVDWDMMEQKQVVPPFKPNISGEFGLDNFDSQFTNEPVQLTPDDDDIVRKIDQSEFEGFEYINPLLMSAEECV", "how_it_was_run": "as §1"}, "[33]": {"target": "T33, PRK2 (Homo sapiens, UniProt Q16513)", "T33 construct": "purchased Millipore, Inc. (KinaseProfiler service)", "how_it_was_run": "as §1"}, "[34]": {"target": "T34, PRKG1alpha (Homo sapiens, UniProt Q13976)", "T34 construct": "purchased Millipore, Inc. (KinaseProfiler service)", "how_it_was_run": "as §1"}, "[35]": {"target": "T35, PTK6 (Homo sapiens, UniProt Q13882)", "T35 construct": "purchased Millipore, Inc. (KinaseProfiler service)", "how_it_was_run": "as §1"}, "[36]": {"target": "T36, Syk (Homo sapiens, UniProt P43405)", "T36 construct": "purchased Millipore, Inc. (KinaseProfiler service)", "how_it_was_run": "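Each kinase was run with ATP at roughly its Km. Test compound was added at a fixed 10 μM and assayed twice, and activity was expressed relative to control as POC.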"}, "[37]": {"target": "T37, TAK1 (Homo sapiens, UniProt O43318)", "T37 construct": "purchased Millipore, Inc. (KinaseProfiler service)", "T37 sequence (O43318 1-303 limits assumed)": "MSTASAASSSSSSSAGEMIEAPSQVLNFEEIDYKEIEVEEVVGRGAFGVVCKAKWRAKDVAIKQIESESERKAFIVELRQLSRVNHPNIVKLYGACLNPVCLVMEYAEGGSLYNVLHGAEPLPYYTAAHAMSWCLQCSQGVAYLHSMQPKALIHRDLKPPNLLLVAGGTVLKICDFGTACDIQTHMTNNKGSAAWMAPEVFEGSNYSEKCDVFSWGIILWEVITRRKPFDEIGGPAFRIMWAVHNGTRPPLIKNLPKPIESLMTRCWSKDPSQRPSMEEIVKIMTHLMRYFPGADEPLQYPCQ", "how_it_was_run": "as §1"}, "[38]": {"target": "T38, ULK2 (Homo sapiens, UniProt Q8IYT8)", "T38 construct": "purchased Millipore, Inc. (KinaseProfiler service)", "how_it_was_run": "as §1"}, "[39]": {"target": "T39, ULK3 (Homo sapiens, UniProt Q6PHR2)", "T39 construct": "purchased Millipore, Inc. (KinaseProfiler service)", "how_it_was_run": "as §1"}, "[40]": {"target": "T40, VRK2 (Homo sapiens, UniProt Q86Y07)", "T40 construct": "purchased Millipore, Inc. (KinaseProfiler service)", "T40 sequence (Q86Y07 whole entry)": "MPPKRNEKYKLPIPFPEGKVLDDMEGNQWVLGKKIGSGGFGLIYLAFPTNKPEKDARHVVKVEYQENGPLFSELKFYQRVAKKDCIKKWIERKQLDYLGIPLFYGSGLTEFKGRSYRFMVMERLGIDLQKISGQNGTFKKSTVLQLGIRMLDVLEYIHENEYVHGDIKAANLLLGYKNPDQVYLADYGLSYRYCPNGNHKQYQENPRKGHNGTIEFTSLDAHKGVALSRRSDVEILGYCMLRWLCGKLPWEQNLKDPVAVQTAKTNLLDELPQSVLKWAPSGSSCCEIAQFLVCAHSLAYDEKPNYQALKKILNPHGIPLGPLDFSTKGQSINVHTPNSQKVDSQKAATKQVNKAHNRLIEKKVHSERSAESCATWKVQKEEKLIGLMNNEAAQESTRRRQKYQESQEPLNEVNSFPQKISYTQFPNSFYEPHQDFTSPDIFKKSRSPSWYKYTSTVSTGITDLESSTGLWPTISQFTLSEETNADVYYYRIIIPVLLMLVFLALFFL", "how_it_was_run": "as §1"}, "[41]": {"target": "T41, p70S6K (Homo sapiens, UniProt P23443)", "T41 construct": "purchased Millipore, Inc. (KinaseProfiler service)", "T41 sequence (P23443 whole entry)": "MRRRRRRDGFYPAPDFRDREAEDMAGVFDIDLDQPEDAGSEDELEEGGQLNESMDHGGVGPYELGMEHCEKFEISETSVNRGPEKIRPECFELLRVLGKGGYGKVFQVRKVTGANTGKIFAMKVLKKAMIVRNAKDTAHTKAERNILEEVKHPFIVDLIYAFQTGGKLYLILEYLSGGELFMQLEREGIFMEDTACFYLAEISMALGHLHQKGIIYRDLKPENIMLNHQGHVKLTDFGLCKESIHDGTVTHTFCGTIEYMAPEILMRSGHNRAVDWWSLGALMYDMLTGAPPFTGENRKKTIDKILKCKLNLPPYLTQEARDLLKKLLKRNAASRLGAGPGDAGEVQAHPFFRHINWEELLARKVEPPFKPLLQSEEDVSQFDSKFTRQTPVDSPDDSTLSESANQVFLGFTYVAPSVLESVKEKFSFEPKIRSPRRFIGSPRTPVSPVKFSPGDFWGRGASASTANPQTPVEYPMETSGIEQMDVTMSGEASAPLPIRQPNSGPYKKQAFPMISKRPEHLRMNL", "how_it_was_run": "as §1"}}}
{"compound": "COCc1ccc(C2CCC2)c(CNC(=O)Nc2c(C)c(-c3cnc(C)nc3)nn2-c2ccccc2)c1", "note": "[Example 10, 1-(2-cyclobutyl-5-(methoxymethyl)benzyl)-3-(4-methyl-3-(2-methylpyrimidin-5-yl)-1-phenyl-1H-pyrazol-5-yl)urea]", "values": [{"measurement": "Avg POC ALK4", "setting": "[1]", "value": 111.5, "unit": "POC"}, {"measurement": "Avg POC AMPK(A1/B1/G1)", "setting": "[2]", "value": 111.5, "unit": "POC"}, {"measurement": "Avg POC Axl", "setting": "[3]", "value": 104.5, "unit": "POC"}, {"measurement": "Avg POC BTK", "setting": "[4]", "value": 117.5, "unit": "POC"}, {"measurement": "Avg POC CAMK2g", "setting": "[5]", "value": 101, "unit": "POC"}, {"measurement": "Avg POC CDK3/cyclinE", "setting": "[6]", "value": 90.5, "unit": "POC"}, {"measurement": "Avg POC CK1delta", "setting": "[7]", "value": 85.5, "unit": "POC"}, {"measurement": "Avg POC CK2", "setting": "[8]", "value": 94.5, "unit": "POC"}, {"measurement": "Avg POC CSK", "setting": "[9]", "value": 132, "unit": "POC"}, {"measurement": "Avg POC EphB3", "setting": "[10]", "value": 100, "unit": "POC"}, {"measurement": "Avg POC FAK2", "setting": "[11]", "value": 96, "unit": "POC"}, {"measurement": "Avg POC FGFR1", "setting": "[12]", "value": 68, "unit": "POC"}, {"measurement": "Avg POC Flt4", "setting": "[13]", "value": 88, "unit": "POC"}, {"measurement": "Avg POC Fms", "setting": "[14]", "value": 83.5, "unit": "POC"}, {"measurement": "Avg POC GRK5", "setting": "[15]", "value": 81.5, "unit": "POC"}, {"measurement": "Avg POC Haspin", "setting": "[16]", "value": 80.5, "unit": "POC"}, {"measurement": "Avg POC IRR", "setting": "[17]", "value": 96, "unit": "POC"}, {"measurement": "Avg POC LIMK1", "setting": "[18]", "value": 92, "unit": "POC"}, {"measurement": "Avg POC LKB1", "setting": "[19]", "value": 89.5, "unit": "POC"}, {"measurement": "Avg POC Lck", "setting": "[20]", "value": 75.5, "unit": "POC"}, {"measurement": "Avg POC MAP4K2", "setting": "[21]", "value": 95.5, "unit": "POC"}, {"measurement": "Avg POC MAPKAP-K2", "setting": "[22]", "value": 106, "unit": "POC"}, {"measurement": "Avg POC MKNK2", "setting": "[23]", "value": 98, "unit": "POC"}, {"measurement": "Avg POC MYLK", "setting": "[24]", "value": 88, "unit": "POC"}, {"measurement": "Avg POC NEK3", "setting": "[25]", "value": 97.5, "unit": "POC"}, {"measurement": "Avg POC NLK", "setting": "[26]", "value": 107, "unit": "POC"}, {"measurement": "Avg POC PAK2", "setting": "[27]", "value": 88, "unit": "POC"}, {"measurement": "Avg POC PDK1", "setting": "[28]", "value": 120.5, "unit": "POC"}, {"measurement": "Avg POC PKCbetaI", "setting": "[29]", "value": 104.5, "unit": "POC"}, {"measurement": "Avg POC PKCeta", "setting": "[30]", "value": 86.5, "unit": "POC"}, {"measurement": "Avg POC PKCgamma", "setting": "[31]", "value": 101, "unit": "POC"}, {"measurement": "Avg POC PKCiota", "setting": "[32]", "value": 65.5, "unit": "POC"}, {"measurement": "Avg POC PRK2", "setting": "[33]", "value": 88.5, "unit": "POC"}, {"measurement": "Avg POC PRKG1alpha", "setting": "[34]", "value": 113, "unit": "POC"}, {"measurement": "Avg POC PTK6", "setting": "[35]", "value": 106.5, "unit": "POC"}, {"measurement": "Avg POC Syk", "setting": "[36]", "value": 79.5, "unit": "POC"}, {"measurement": "Avg POC TAK1", "setting": "[37]", "value": 86, "unit": "POC"}, {"measurement": "Avg POC ULK2", "setting": "[38]", "value": 89, "unit": "POC"}, {"measurement": "Avg POC ULK3", "setting": "[39]", "value": 93.5, "unit": "POC"}, {"measurement": "Avg POC VRK2", "setting": "[40]", "value": 90, "unit": "POC"}, {"measurement": "Avg POC p70S6K", "setting": "[41]", "value": 111, "unit": "POC"}]}
